Activity calls are given as the source filed them. The calls are words filed in the database; no cut-off is given here.
Tests used:
COMI [1] = test: Growth inhibition of human COMI cells incubated for 48 hrs by Hoechst 33342/PI staining based analysis; assay type: functional
COMI [2] = test: Growth inhibition of human COMI cells incubated for 48 hrs in the presence of quinupristin by Hoechst 33342/PI staining based analysis; assay type: functional
COMI [3] = test: Inhibition of mitochondrial translation in human COMI cells assessed as decrease in ND3 expression level at >25 uM incubated for 48 hrs by immunoblotting analysis; assay type: functional, cell-based
COMI [4] = test: Inhibition of mitochondrial translation in human COMI cells assessed as decrease in COX1 expression level at >25 uM incubated for 48 hrs by immunoblotting analysis; assay type: functional, cell-based
COMI [5] = test: Inhibition of mitochondrial translation in human COMI cells assessed as decrease in COX2 expression level at >25 uM incubated for 48 hrs by immunoblotting analysis; assay type: functional, cell-based
COMI [6] = test: Inhibition of mitochondrial translation in human COMI cells assessed as increase in COX4 expression level at >25 uM incubated for 48 hrs by immunoblotting analysis; assay type: functional, cell-based
COMI [7] = test: Inhibition of mitochondrial translation in human COMI cells assessed as decrease in ND3 expression level incubated for 48 hrs by immunoblotting analysis; assay type: functional, cell-based
COMI [8] = test: Inhibition of mitochondrial translation in human COMI cells assessed as decrease in COX1 expression level incubated for 48 hrs by immunoblotting analysis; assay type: functional, cell-based
COMI [9] = test: Inhibition of mitochondrial translation in human COMI cells assessed as decrease in COX2 expression level incubated for 48 hrs by immunoblotting analysis; assay type: functional, cell-based
COMI [10] = test: Inhibition of mitochondrial translation in human COMI cells assessed as increase in COX4 expression level incubated for 48 hrs by immunoblotting analysis; assay type: functional, cell-based
COMI [11] = test: Inhibition of mitochondrial translation in human COMI cells assessed as decrease in ND3 expression level at 0.5 to 5 uM incubated for 48 hrs by immunoblotting analysis; assay type: functional, cell-based; settings: dose 0.5-5 µM
COMI [12] = test: Inhibition of mitochondrial translation in human COMI cells assessed as decrease in COX1 expression level at 0.5 to 5 uM incubated for 48 hrs by immunoblotting analysis; assay type: functional, cell-based; settings: dose 0.5-5 µM
COMI [13] = test: Inhibition of mitochondrial translation in human COMI cells assessed as decrease in COX2 expression level at 0.5 to 5 uM incubated for 48 hrs by immunoblotting analysis; assay type: functional, cell-based; settings: dose 0.5-5 µM
COMI [14] = test: Inhibition of mitochondrial translation in human COMI cells assessed as increase in COX4 expression level at 0.5 to 5 uM incubated for 48 hrs by immunoblotting analysis; assay type: functional, cell-based; settings: dose 0.5-5 µM
COMI [15] = test: Growth inhibition of human COMI cells; assay type: functional
VIPI = test: Growth inhibition of human VIPI cells; assay type: functional

SMILES | GI50 (COMI [1]) [µM] | GI50 (COMI [2]) [µM] | inhibition (COMI [7]) | inhibition (COMI [8]) | inhibition (COMI [9]) | inhibition (COMI [10]) | other results
CC1=C\C=C\C(=O)Cc2nc(co2)C(=O)N2CCC=C2C(=O)O[C@H](C(C)C)[C@H](C)/C=C/C(=O)NC\C=C\1 | 20.5 | 15.6 |  |  |  |  | 
CCN(CC)CCOC1CCN2C(=O)c3coc(n3)C[C@H](O)C[C@H](O)/C=C(C)/C=C/CNC(=O)/C=C/[C@@H](C)[C@@H](C(C)C)OC(=O)C12 (some centres undefined) | 85.3 | 14 |  |  |  |  | inhibition (COMI [3]): Active; inhibition (COMI [4]): Active; inhibition (COMI [5]): Active; inhibition (COMI [6]): Active
CC1=C\[C@@H](O)C[C@H](F)Cc2nc(co2)C(=O)N2CCC=C2C(=O)O[C@H](C(C)C)[C@H](C)/C=C/C(=O)NC\C=C\1 | 36.1 | 12.3 | Active | Active | Active | Active | 
CCN(CC)CCS(=O)(=O)[C@@H]1CCN2C(=O)c3coc(n3)CC(=O)C[C@H](O)C3C(C)=CC(CNC(=O)/C=C/[C@@H](C)[C@@H](C(C)C)OC(=O)[C@@H]12)C1C(=O)NC(=O)C13 (some centres undefined) | > 100 | 14.5 | inactive | inactive | inactive | inactive | 
CCN(CC)CCS(=O)(=O)[C@@H]1CCN2C(=O)c3coc(n3)CC(=O)/C=C/C=C(C)/C=C/CNC(=O)/C=C/[C@@H](C)[C@@H](C(C)C)OC(=O)[C@@H]12 | 10.9 | 9.9 |  |  |  |  | 
CC1=C\[C@@H](O)C[C@@H](F)Cc2nc(co2)C(=O)N2CCC[C@@H]2C(=O)O[C@H](C(C)C)[C@H](C)/C=C/C(=O)NC\C=C\1 | 7.37 | 5.83 |  |  |  |  | inhibition (COMI [11]): Active; inhibition (COMI [12]): Active; inhibition (COMI [13]): Active; inhibition (COMI [14]): Active
CN[C@@H]1Cc2nc(co2)C(=O)N2CCC=C2C(=O)O[C@H](C(C)C)[C@H](C)/C=C/C(=O)NC/C=C/C(C)=C/[C@@H](O)C1 | 1.16 | 1.5 |  |  |  |  | inhibition (COMI [11]): inactive; inhibition (COMI [12]): inactive; inhibition (COMI [13]): inactive; inhibition (COMI [14]): inactive
CCN(CC)CCS(=O)(=O)[C@@H]1CCN2C(=O)c3coc(n3)C[C@H](F)C[C@H](O)/C=C(C)/C=C/CNC(=O)/C=C/[C@@H](C)[C@@H](C(C)C)OC(=O)[C@@H]12 | 6.73 | 5.71 |  |  |  |  | inhibition (COMI [11]): Active; inhibition (COMI [12]): Active; inhibition (COMI [13]): Active; inhibition (COMI [14]): Active
CCN(CC)CCS(=O)(=O)[C@@H]1CCN2C(=O)c3coc(n3)C[C@H](O)C[C@H](O)/C=C(C)/C=C/CNC(=O)/C=C/[C@@H](C)[C@@H](C(C)C)OC(=O)[C@@H]12 | 37.5 | 7.05 | Active | Active | Active | Active | 
CCN(CC)CCS(=O)(=O)[C@@H]1CCN2C(=O)c3coc(n3)C[C@@H](NC)C[C@H](O)/C=C(C)/C=C/CNC(=O)/C=C/[C@@H](C)[C@@H](C(C)C)OC(=O)[C@@H]12 | 1.56 | 1.32 |  |  |  |  | inhibition (COMI [11]): inactive; inhibition (COMI [12]): inactive; inhibition (COMI [13]): inactive; inhibition (COMI [14]): inactive
CCN(CC)CCS(=O)(=O)[C@@H]1CCN2C(=O)c3coc(n3)C[C@@H](O)C[C@H](O)/C=C(C)/C=C/CNC(=O)/C=C/[C@@H](C)[C@@H](C(C)C)OC(=O)[C@@H]12 | 18.8 | 5.17 | Active | Active | Active | Active | 
CC1=C\[C@@H](O)C[C@@H](F)Cc2nc(co2)C(=O)N2CCC=C2C(=O)O[C@H](C(C)C)[C@H](C)/C=C/C(=O)NC\C=C\1 | 4.82 | 5.42 |  |  |  |  | inhibition (COMI [11]): Active; inhibition (COMI [12]): Active; inhibition (COMI [13]): Active; inhibition (COMI [14]): Active
CCN(CC)CCS(=O)(=O)[C@@H]1CCN2C(=O)c3coc(n3)CC(=O)C[C@H](O)C3C(C)=CC(CNC(=O)/C=C/[C@@H](C)[C@@H](C(C)C)OC(=O)[C@@H]12)C1C(=O)OC(=O)C13 (some centres undefined) | > 100 | 14.8 | inactive | inactive | inactive | inactive | 
CC1=CC2CNC(=O)/C=C/[C@@H](C)[C@@H](C(C)C)OC(=O)C3=CCCN3C(=O)c3coc(n3)CC(=O)C[C@H](O)C1C1C(=O)NC(=O)C21 (some centres undefined) | > 100 | 16.4 | inactive | inactive | inactive | inactive | 
CC1=C\[C@@H](O)C[C@H](O)Cc2nc(co2)C(=O)N2CCC=C2C(=O)O[C@H](C(C)C)[C@H](C)/C=C/C(=O)NC\C=C\1 | 52.5 | 8.74 | Active | Active | Active | Active | 
CC1=C\[C@@H](O)C[C@@H](O)Cc2nc(co2)C(=O)N2CCC=C2C(=O)O[C@H](C(C)C)[C@H](C)/C=C/C(=O)NC\C=C\1 | 21.7 | 5.28 | Active | Active | Active | Active | 
CC1=CC2CNC(=O)/C=C/[C@@H](C)[C@@H](C(C)C)OC(=O)C3=CCCN3C(=O)c3coc(n3)CC(=O)C[C@H](O)C1C1C(=O)OC(=O)C21 (some centres undefined) | > 100 | 19.6 | inactive | inactive | inactive | inactive | 
CCN(CC)CCS(=O)(=O)[C@@H]1CCN2C(=O)c3coc(n3)C[C@@H](F)C[C@H](O)/C=C(C)/C=C/CNC(=O)/C=C/[C@@H](C)[C@@H](C(C)C)OC(=O)[C@@H]12 | 20.5 | 8.37 | Active | Active | Active | Active | 
CCN(CC)CCS[C@@H]1CCN2C(=O)c3coc(n3)CC(=O)C[C@H](O)/C=C(C)/C=C/CNC(=O)/C=C/[C@@H](C)[C@@H](C(C)C)OC(=O)[C@@H]12 | 7.02 | 8 |  |  |  |  | 
CCN(CC)CCS(=O)(=O)[C@@H]1CCN2C(=O)c3coc(n3)C[C@H](NC)C[C@H](O)/C=C(C)/C=C/CNC(=O)/C=C/[C@@H](C)[C@@H](C(C)C)OC(=O)[C@@H]12 | 14.2 | 4.85 |  |  |  |  | inhibition (COMI [11]): inactive; inhibition (COMI [12]): inactive; inhibition (COMI [13]): inactive; inhibition (COMI [14]): inactive
CCN(CC)CCNC1CCN2C(=O)c3coc(n3)C[C@H](O)C[C@H](O)/C=C(C)/C=C/CNC(=O)/C=C/[C@@H](C)[C@@H](C(C)C)OC(=O)C12 (some centres undefined) | > 100 | 16.9 |  |  |  |  | inhibition (COMI [3]): Active; inhibition (COMI [4]): Active; inhibition (COMI [5]): Active; inhibition (COMI [6]): Active
CN[C@H]1Cc2nc(co2)C(=O)N2CCC=C2C(=O)O[C@H](C(C)C)[C@H](C)/C=C/C(=O)NC/C=C/C(C)=C/[C@@H](O)C1 | 19.4 | 6.57 |  |  |  |  | inhibition (COMI [11]): inactive; inhibition (COMI [12]): inactive; inhibition (COMI [13]): inactive; inhibition (COMI [14]): inactive
Cn1nnc2c(C(N)=O)ncn2c1=O [TEMOZOLOMIDE] |  |  |  |  |  |  | GI50 (COMI [15]): 96.5 µM; GI50 (VIPI): 338 µM
CC1=C\[C@@H](O)CC(=O)Cc2nc(co2)C(=O)N2CCC=C2C(=O)O[C@H](C(C)C)[C@H](C)/C=C/C(=O)NC\C=C\1 [VIRGINIAMYCIN FACTOR M1] | 17.1 | 7.25 |  |  |  |  | 
